We go through two compounds from article PMC9515468, “Tetracycline-grafted mPEG-PLGA micelles for bone-targeting and osteoporotic improvement” (Frontiers in Pharmacology, 2022).

One data set relates to ovariectomized rats. As to the kind of experiment: Osteoporotic study in ovariectomized rats (femur micro-CT, BMD). The note with it: 0.5 mg/kg/2 days intravenous; for BMD (bone mineral density) / BV/TV / SMI (structure model index) / Tb.N / Tb.Sp / Tb.Th: femur of ovariectomized rats, n = 3; for increase of femur BMD compared to the OVX group: ovariectomized rats, treatment for 8 weeks. The class given is in vivo, SD rats. The method, then:
Female SD rats were adopted for the osteoporotic study. […] All SD rats were anesthetized and bilaterally ovariectomized except those in the SHAM group, which underwent a sham operation. […] All SD rats were sacrificed, and their left femurs were collected. Detection of BMD was performed with a dual energy X-ray absorptiometric machine ([…] Microtomograph, Bruker, Belgium) ([Zhang et al., 2020]).

The nature of data set [1]: Pharmacokinetic parameters in the plasma. The class given is in vivo. The following applies: SD rats, 10 mg/kg, tail vein, n = 6. The method, then:
In-house in vitro analysis of AS was performed with a Shimadzu high performance liquid chromatography (HPLC) machine ([…], Shimadzu-Japan) equipped with an ultraviolet detector and a Purospher® RP18 column (5 μm, 4.6 × 250 mm, Merck KGaA-Germany). […] For in vivo detection, the internal standard (IS) was a baicalein (20 μg/ml) solution, wherein ethyl acetate was employed to extract AS and IS from plasma ([Zhen et al., 2020]). […] Sampling of blood from the retro-orbital veins of rats at preset time intervals was performed after they had received the aforementioned dosage forms. To obtain serum, we stored the sampled blood for 30 min at 37°C prior to centrifugation at 3,700 rpm for 10 min. The following procedure has been depicted in Section 2.7. Based on observed values, we computed Cmax as the maximum AS concentration in plasma and Tmax as the time to attain Cmax. […] Estimation of oral relative biological availability (RBA) was carried out as follows ([Zhu et al., 2021]): […]

Data set [2] is described as follows: AS release in vitro, dialysis bag method. The following applies: in 48 h, PBS pH 7.4 with 0.5% Tween 80, 37 °C. The class given is physicochemical. The method, then: The experiment was conducted with an oscillating machine (ZRS-8G model, Tianjin Univ. Radio Factory, China) at a speed of 100 rpm and 37 °C. Withdrawal of dissolution medium for analysis was accordingly performed, while the same volume of fresh medium was added at preset time periods. Measurement of AS concentration for the calculation of the cumulative release ratio with HPLC was carried out. The release curve was drawn with the abscissa as time and the cumulative release ratio as the ordinate ([Weng et al., 2019]).

Data set [3] is described as follows: Hydroxyapatite-targeting ability (binding to bone mineral). The note with it: 80 mg hydroxyapatite, 37°C, within 4 h. The method, then: The precipitates were dissolved with 10 ml of methanol prior to 5 min of sonication and 10 min of centrifugation at 12,000 rpm. Filtration of the supernatant was accomplished with a filtering membrane (0.22 μm). The concentration of AS in the supernatant was detected by HPLC. The adsorption ability of bone targets was calculated by the following equation ([Yuan et al., 2020]): A%=Ia/I0×100% (5) where A% represents the adsorption ability of bone targets. The Ia denotes the amount of AS absorbed by hydroxyapatite. The I0 denotes the weight of AS in initial bone targets.

Take `C[C@]12CC[C@@H]3c4ccc(O)cc4CC[C@H]3[C@@H]1CC[C@@H]2O` [ES, estradiol]: in the data set with ovariectomized rats, the “BMD (bone mineral density)” value is 0.093 ± 0.003, the BV/TV was 12.91 ± 0.703%, the “SMI (structure model index)” value is given as 1.793 ± 0.052 and the Tb.N was 1.943 ± 0.063. In the data set on ovariectomized rats, the Tb.Sp is 0.48 ± 0.016, the Tb.Th was determined as 0.074 ± 0.002 mm and the “increase of femur BMD compared to the OVX group” value came out at 62.5%.
On to `CC(C)(O)[C@@H]1CC[C@](C)([C@H]2[C@@H](O)C[C@@]3(C)[C@@H]4C[C@H](O[C@@H]5O[C@H](CO)[C@@H](O)[C@H](O)[C@H]5O)[C@H]5C(C)(C)[C@@H](O[C@@H]6OC[C@@H](O)[C@H](O)[C@H]6O)CC[C@@]56C[C@@]46CC[C@]23C)O1` [AS, Astragaloside IV], for which, in data set [1], the AUCt turned out to be 12912 ng·h/mL; the highest concentration (Cmax) (commonly the peak of the concentration-time curve) came out at 14320 ng/mL; the MRT (in general, a mean duration of stay, worked out from the concentration-time curve) turned out to be 82.14 min; the Tmax – broadly, the time from dosing to the highest level – came to 4.98 min. This compound also returned a t1/2 in data set [1] of 33.5 min. For the same compound, the “effect on osteoporosis in ovariectomized rats vs OVX group” value in the data set with ovariectomized rats (p < 0.05) is recorded as “certain mitigative effect”. In addition, in the data set with ovariectomized rats, the “BMD (bone mineral density)” value was 0.064 ± 0.003, the BV/TV is reported as 9.951 ± 0.100%, the “SMI (structure model index)” value is listed as 1.847 ± 0.032 and the Tb.N was found to be 1.441 ± 0.026. Besides, in the data set with ovariectomized rats, the Tb.Sp was 0.60 ± 0.018, the Tb.Th came out at 0.076 ± 0.002 mm and the “increase of femur BMD compared to the OVX group” value is 12.9%. This compound displayed a cumulative release rate in data set [2] of 79.05%. Moreover, in data set [3] (containing 1 mg AS), the “adsorption ability to hydroxyapatite (A%)” value came out at 26.98%. The “adsorption ability to hydroxyapatite (A%)” value in data set [3] (containing 5 mg AS) was 28.83%.
